The values that follow come from article PMC8124774, “Tuning Anti-Biofilm Activity of Manganese(II) Complexes: Linking Biological Effectiveness of Heteroaromatic Complexes of Alcohol, Aldehyde, Ketone, and Carboxylic Acid with Structural Effects and Redox Activity” (International Journal of Molecular Sciences, 2021).

The subject of experiment [1] is Pseudomonas aeruginosa LES B58. Nature of the experiment: broth microdilution MIC, P. aeruginosa LES B58. The experiment is classed as cell-based. The note with it: P. aeruginosa LES B58, planktonic cells. How it is done: (§1) The antimicrobial activities of the heteroaromatic ligands, Mn(II) complexes, and commercially available drug streptomycin were tested against standard bacterial strains: Staphylococcus aureus ATCC 6538P, Escherichia coli ATCC 8739, Pseudomonas aeruginosa PAO1 (biofilm model strain), and Pseudomonas aeruginosa LES B58 (clinical isolate). The P. aeruginosa PAO1 and LES B58 isolates were derived from the International Pseudomonas aeruginosa Reference Panel (http://bccm.belspo.be/about-us/bccm-lmg, accessed on 30 March 2021).
(§2) All bacteria species were cultivated in trypticase soy broth (TSB) medium (Biocorp, Warsaw, Poland) for 18 h at 37 °C with shaking (160 rpm). Overnight cultures of bacteria were diluted 1:100 into fresh TSB medium and then placed in each of the 96 wells of a microtiter transparent plate (Greiner, Monroe, NC, USA). The manganese(II) complexes—[Mn-pyOH-SO4]n, Mn-imCHO-NO3, Mn-imCHO-Cl, Mn-dipyCO-NO3—and the ligands—pyOH, pyCOOH—were prepared by dissolving compounds in distilled water. […] The starting stock solution was of 2-mM concentration.
(§3) The quantitative assay of the antibacterial activity was performed by the broth microdilution method, in 96-well microtiter plates, in order to establish the minimum inhibitory concentration (MIC). To this purpose, serial two-fold dilutions of the compounds ranging between 1 and 0.0625 mM were made. The details of the experiment were presented in our previous paper.

Experiment [2] has as its target T1, catalase from the bovine liver (Bos taurus, UniProt P00432).
T1 construct: The catalase from the bovine liver solution; purchased Sigma–Aldrich; host or cells: bovine liver
T1 sequence (P00432 2-527 limits assumed): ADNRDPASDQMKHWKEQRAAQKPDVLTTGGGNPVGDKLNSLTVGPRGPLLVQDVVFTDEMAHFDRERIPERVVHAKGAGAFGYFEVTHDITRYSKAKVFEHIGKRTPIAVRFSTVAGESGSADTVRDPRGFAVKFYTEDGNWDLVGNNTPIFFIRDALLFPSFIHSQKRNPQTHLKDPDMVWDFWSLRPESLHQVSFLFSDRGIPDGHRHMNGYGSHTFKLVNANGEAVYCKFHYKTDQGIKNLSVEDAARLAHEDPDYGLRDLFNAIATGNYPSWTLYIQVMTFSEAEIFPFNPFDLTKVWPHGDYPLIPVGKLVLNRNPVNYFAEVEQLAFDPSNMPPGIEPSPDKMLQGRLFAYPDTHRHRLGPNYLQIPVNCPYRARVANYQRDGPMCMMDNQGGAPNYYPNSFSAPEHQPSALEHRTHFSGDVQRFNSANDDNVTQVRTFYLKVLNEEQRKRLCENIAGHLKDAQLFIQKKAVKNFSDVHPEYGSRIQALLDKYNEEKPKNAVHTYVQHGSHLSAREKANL
The experiment can be described thus: catalase activity in the presence of the Mn(II) complexes (absorbance at 240 nm). It counts as biochemical. The conditions noted are these: 0.5 mM complex, vs catalase alone. How it is done: First, the complexes were incubated with the catalase in the presence of a phosphate buffer, and then hydrogen peroxide was added thereto. To study the effect of the manganese complexes on the activity of CAT, its performance, in the presence of similar concentrations of the Mn complexes (0.5 mM), was investigated. The percentage of absorbance reduction over time was recorded at 240 nm. The positive control was the catalase sample in the absence of the Mn(II) complex. Figure 12 illustrates the effect of the Mn(II) complexes on the catalase activity.
The effect of the manganese complexes on the activity of catalase (CAT) was determined using the spectrophotometric method. The decrease in absorbance due to hydrogen peroxide depletion was recorded at 240 nm by the V-780 UV-Vis/NIR spectrophotometer (Jasco, Easton, MD, USA). The tests were performed in a 50-mM potassium phosphate buffer (PBS) at 37 °C, pH = 7.0. The catalase from the bovine liver solution (Sigma–Aldrich, St. Louis, MO, USA, lyophilized powder, ≥10,000 units/mg protein) was prepared in the PBS buffer as an initial dilution of ~1000 units/mL at 37 °C. The hydrogen peroxide solution, approximately 0.03% (w/w), was prepared by dilution in the PBS buffer to achieve the absorbance close to 1 a.u, and the PBS was used as a blank. The manganese complexes were diluted in the PBS buffer to stock the concentration of 1 mM. The mixture of 500 µL of the hydrogen peroxide, 1 µL of the catalase (final 1U of catalase activity), and 500 µL of the manganese complexes, previously incubated in a water bath at 37 °C, was added to a quartz cuvette (10 mm, 1 mL), closed by a cover, and placed in the spectrophotometer. The absorbance readings were performed in 10-s intervals during the first minute of the incubation time at 37 °C. The results were presented as the dependence on the percentage of the absorbance reduction over time.

In experiment [3] the test system is Staphylococcus aureus ATCC 6538P. The experiment can be described thus: broth microdilution MIC, S. aureus. It counts as cell-based. The note with it: S. aureus, planktonic cells. How it is done: as §1, §2, §3

Each structure is given as a SMILES string. “And” between values parts separate entries of the source, which are not always exact repeats. Identical values can stand only once. Where only a bound is given, the exact number is not on record here.

With `Cc1[nH]cnc1C=O.Cc1[nH]cnc1C=O.O=[N+]([O-])[O-].O=[N+]([O-])[O-].[Mn+2]` [Mn-imCHO-NO3], the MIC in experiment [1] is > 1 mM and > 399 μg/ml. In addition, the “Action on catalase activity” value in experiment [2] is on record as “promote the catalase activity”.
For `O=[N+]([O-])[O-].O=[N+]([O-])[O-].OCc1ccccn1.OCc1ccccn1.[Mn+2]` [Mn-pyOH-NO3], the MIC is > 1 mM and > 397 μg/ml in experiment [3]; > 1 mM and > 397 μg/ml in experiment [1]. Moreover, the “Action on catalase activity” value in experiment [2] is recorded as “promote the catalase activity”.
